# Activity calls are given as the source filed them. The rule behind the calls is not given here.
# Experiments:
# [1] = test system: NCI-H460; experiment: Induction of apoptosis in human NCI-H460 cells assessed as early apoptotic cells at 0.5 uM for 24 hrs by annexin V-PI staining based flow cytometric analysis (reference value: 0.3%); type: functional
# [2] = test system: DV-90; experiment: Induction of apoptosis in human DV-90 cells assessed as necrotic cells at 0.5 uM for 48 hrs by annexin V-PI staining based flow cytometric analysis (reference value: 8.4%)
# [3] = test system: A549; experiment: Induction of apoptosis in human A549 cells assessed as late apoptotic cells at 0.5 uM for 24 hrs by annexin V-PI staining based flow cytometric analysis (reference value: 1.2%); type: functional
# [4] = test system: A549; experiment: Induction of apoptosis in human A549 cells assessed as necrotic cells at 0.5 uM for 24 hrs by annexin V-PI staining based flow cytometric analysis (reference value: 0.9%); type: functional
# [5] = test system: NCI-H1373; experiment: Induction of apoptosis in human NCI-H1373 cells assessed as viable cells at 2.5 uM for 24 hrs by annexin V-PI staining based flow cytometric analysis (reference value: 71.6%); type: functional; details: read-out: Activity
# [6] = test system: NCI-H460; experiment: Induction of apoptosis in human NCI-H460 cells assessed as early apoptotic cells at 2.5 uM for 24 hrs by annexin V-PI staining based flow cytometric analysis (reference value: 0.3%); type: functional
# [7] = test system: NCI-H1373; experiment: Induction of apoptosis in human NCI-H1373 cells assessed as necrotic cells at 2.5 uM for 24 hrs by annexin V-PI staining based flow cytometric analysis (reference value: 4.4%); type: functional
# [8] = test system: NCI-H1373; experiment: Induction of cell cycle arrest in human NCI-H1373 cells assessed as accumulation of cells at G0/G1 phase at 0.1 uM for 24 hrs by Click-iT EdU Alexa Fluor 647 flow cytometric assay kit analysis (reference value: 45%); type: functional
# [9] = test system: DV-90; experiment: Induction of cell cycle arrest in human DV-90 cells assessed as accumulation of cells at S phase at 1 uM for 24 hrs by Click-iT EdU Alexa Fluor 647 flow cytometric assay kit analysis (reference value: 30%); type: functional
# [10] = test system: DV-90; experiment: Induction of cell cycle arrest in human DV-90 cells assessed as accumulation of cells at S phase at 0.25 uM for 24 hrs by Click-iT EdU Alexa Fluor 647 flow cytometric assay kit analysis (reference value: 30%); type: functional
# [11] = test system: DV-90; experiment: Induction of cell cycle arrest in human DV-90 cells assessed as accumulation of cells at G2/M phase at 0.5 uM for 24 hrs by Click-iT EdU Alexa Fluor 647 flow cytometric assay kit analysis (reference value: 25%); type: functional
# [12] = test system: NCI-H2347; experiment: Downregulation of XIAP mRNA expression level in human NCI-H2347 cells at 0.1 to 1 uM for 24 hrs by qRT-PCR analysis; type: functional, cell-based; details: dose 0.1-1 µM
# [13] = test system: DV-90; experiment: Induction of apoptosis in human DV-90 cells assessed as necrotic cells at 0.5 uM for 24 hrs by annexin V-PI staining based flow cytometric analysis (reference value: 5.4%); type: functional
# [14] = test system: NCI-H460; experiment: Downregulation of c-MYC protein expression level in human NCI-H460 cells at 1 uM for 24 hrs by […] analysis; type: functional, cell-based
# [15] = test system: SK-LU-1; experiment: Downregulation of c-MYC mRNA expression level in human SK-LU-1 cells at 0.1 to 1 uM for 24 hrs by qRT-PCR analysis; type: functional, cell-based; details: dose 0.1-1 µM
# [16] = test system: NCI-H2030; experiment: Induction of TRAIL dependent apoptosis in human NCI-H2030 cells by annexin V-PI staining based flow cytometric analysis; type: functional, cell-based
# [17] = test system: NCI-H2030; experiment: Downregulation of c-MYC mRNA expression level in human NCI-H2030 cells at 0.1 to 1 uM for 24 hrs by qRT-PCR analysis; type: functional, cell-based; details: dose 0.1-1 µM
# [18] = test system: NCI-H460; experiment: Induction of apoptosis in human NCI-H460 cells assessed as early apoptotic cells at 0.5 uM for 24 hrs by annexin V-PI staining based flow cytometric analysis (reference value: 0.2%); type: functional
# [19] = test system: NCI-H1373; experiment: Induction of cell cycle arrest in human NCI-H1373 cells assessed as accumulation of cells at G2/M phase at 1 uM for 24 hrs by Click-iT EdU Alexa Fluor 647 flow cytometric assay kit analysis (reference value: 13%); type: functional
# [20] = test system: NCI-H358; experiment: Downregulation of XIAP mRNA expression level in human NCI-H358 cells at 0.1 to 1 uM for 24 hrs by qRT-PCR analysis; type: functional, cell-based; details: dose 0.1-1 µM
# [21] = test system: A549; experiment: Downregulation of FLIP mRNA expression level in human A549 cells at 0.1 to 1 uM for 24 hrs by qRT-PCR analysis; type: functional, cell-based; details: dose 0.1-1 µM
# [22] = test system: A549; experiment: Induction of apoptosis in human A549 cells assessed as necrotic cells at 1 uM by annexin V-PI based flow cytometric analysis (reference value: 1.6%); type: functional
# [23] = test system: A549; experiment: Downregulation of c-MYC protein level in human A549 cells at 100 to 5000 nM upto 24 hrs by Western blot analysis; type: functional, cell-based; details: dose 100-5000 nM
# [24] = test system: NCI-H1373; experiment: Induction of cell cycle arrest in human NCI-H1373 cells assessed as accumulation of cells at G2/M phase at 0.25 uM for 24 hrs by Click-iT EdU Alexa Fluor 647 flow cytometric assay kit analysis (reference value: 13%); type: functional
# [25] = test system: NCI-H1373; experiment: Downregulation of XIAP protein expression level in human NCI-H1373 cells at 1 uM for 24 hrs by […] analysis; type: functional, cell-based
# [26] = test system: DV-90; experiment: Induction of apoptosis in human DV-90 cells assessed as late apoptotic cells at 0.5 uM for 24 hrs by annexin V-PI staining based flow cytometric analysis (reference value: 11.4%); type: functional
# [27] = test system: NCI-H460; experiment: Downregulation of c-MYC mRNA expression level in human NCI-H460 cells at 0.1 to 1 uM for 24 hrs by qRT-PCR analysis; type: functional, cell-based; details: dose 0.1-1 µM
# [28] = Toxicity in SCID mouse xenografted with human A549 cells assessed as body weight loss administered at 80 mg/kg, ip for 7 days along with cisplatin for 5 days follwed by compound treatment for 14 days relative to control; type: organism-based; details: in vivo, 672 h, time 28 day
# [29] = test system: NCI-H1792; experiment: Downregulation of XIAP protein expression level in human NCI-H1792 cells at 1 uM for 24 hrs by […] analysis; type: functional, cell-based
# [30] = test system: NCI-H358; experiment: Downregulation of c-MYC mRNA expression level in human NCI-H358 cells at 0.1 to 1 uM for 24 hrs by qRT-PCR analysis; type: functional, cell-based; details: dose 0.1-1 µM
# [31] = test system: DV-90; experiment: Downregulation of […] gene in human DV-90 cells after 24 hrs by microarray profiling analysis; type: functional, cell-based
# [32] = test system: DV-90; experiment: Induction of cell cycle arrest in human DV-90 cells assessed as accumulation of cells at G0/G1 phase at 0.1 uM for 24 hrs by Click-iT EdU Alexa Fluor 647 flow cytometric assay kit analysis (reference value: 44%); type: functional
# [33] = test system: NCI-H1373; experiment: Induction of TRAIL dependent apoptosis in human NCI-H1373 cells assessed as necrotic cells at 1 uM in presence of […] by annexin V-PI staining based flow cytometric analysis (reference value: 3.6%); type: functional
# [34] = test system: NCI-H1373; experiment: Downregulation of c-MYC protein level in human NCI-H1373 cells upto 24 hrs by Western blot analysis; type: functional, cell-based; details: dose 100-5000 nM
smiles,measurement,setting,value
Cc1sc2c(c1C)C(c1ccc(Cl)cc1)=N[C@@H](CC(=O)Nc1ccc(O)cc1)c1nnc(C)n1-2 [BIRABRESIB],Activity,[1],0.2%
same,Activity,[2],27.6%
same,Activity,[3],1.1%
same,Activity,[4],0.7%
same,viability at 2.5 µM,[5],56.2%
same,Activity,[6],0.6%
same,Activity,[7],21.4%
CCNC(=O)C[C@@H]1N=C(c2ccc(Cl)cc2)c2cc(OC)ccc2-n2c(C)nnc21 [MOLIBRESIB],Activity,[8],46%
same,Activity,[9],22%
same,Activity,[10],22%
same,Activity,[11],30%
Cc1sc2c(c1C)C(c1ccc(Cl)cc1)=N[C@@H](CC(=O)OC(C)(C)C)c1nnc(C)n1-2,Activity,[12],Active
same,Activity,[13],25.4%
same,Activity,[14],Active
same,Activity,[15],Active
same,Activity,[16],Active
same,Activity,[17],Active
same,Activity,[18],0.2%
same,Activity,[19],21%
same,Activity,[20],Active
same,Activity,[21],Active
same,Activity,[22],0.6%
same,Activity,[23],inactive
same,Activity,[24],16%
same,Activity,[25],Active
same,Activity,[26],10.7%
same,Activity,[27],Active
same,T/C,[28],10%
same,Activity,[29],Active
same,Activity,[30],Active
same,Activity,[31],Active
same,Activity,[32],41%
same,Activity,[33],40.2%
same,Activity,[34],Dose-Dependent Effect
